Measured values from patent publication US11981686B2, “Urea compound having substituent” (DAIICHI SANKYO COMPANY, LIMITED, priority 2019, dated 2024).

Target: SIRT6 enzyme (Homo sapiens, UniProt Q8N6T7)
Assay: Measurement of deacetylation activity (SIRT6, AlphaLISA, H3K9(Ac) peptide)
Format: biochemical
Conditions: SIRT6 25 ng/mL, H3K9(Ac) biotin peptide 2 nM, NAD 10 μM, room temperature 30 minutes, duplicate
How it was run: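 Activation read as EC150, the concentration giving 150% activity relative to enzyme/no-enzyme DMSO controls, via variable-slope fit. Deacetylation of 2 nM biotinylated H3K9(Ac) peptide with 10 μM NAD+ by 25 ng/mL SIRT6 ran 30 min at room temperature, pH 8.0, then AlphaLISA detection of unmodified H3K9.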

Chain of SIRT6 enzyme (Q8N6T7 whole entry, species assumed): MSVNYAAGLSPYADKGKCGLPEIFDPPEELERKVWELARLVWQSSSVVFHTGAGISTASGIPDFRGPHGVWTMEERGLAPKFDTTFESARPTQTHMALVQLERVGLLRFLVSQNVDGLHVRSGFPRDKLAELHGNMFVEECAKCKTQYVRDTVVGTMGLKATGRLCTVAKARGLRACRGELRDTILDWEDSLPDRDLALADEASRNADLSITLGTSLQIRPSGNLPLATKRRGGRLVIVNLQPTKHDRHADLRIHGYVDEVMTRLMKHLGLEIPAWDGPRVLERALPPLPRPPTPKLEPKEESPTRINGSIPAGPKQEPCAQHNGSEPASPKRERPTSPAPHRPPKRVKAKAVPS

Row | SMILES | EC150 (the concentration of the compound showing a relative enzyme activity of 150%) [μm]
1 | C[C@@H](O)CNC(=O)Nc1nc2c(s1)CN(c1cc(C3CCC(F)(F)CC3)on1)CC2 [Example 153, N-{5-[5-(4,4-difluorocyclohexyl)-1,2-oxazol-3-yl]-4,5,6,7-tetrahydro[1,3]thiazolo[5,4-c]pyridin-2-yl}-N′-[(2R)-2-hydroxypropyl]urea] | 2.1
2 | C[C@H](CO)NC(=O)Nc1nc2c(s1)[C@@H]1COC[C@H](C2)N1c1cc(-c2ccc(F)cc2)on1 [Example 154, N-{(4S,8S)-10-[5-(4-fluorophenyl)-1,2-oxazol-3-yl]-4,7,8,9-tetrahydro-5H-4,8-epiminooxocino[5,4-d][1,3]thiazol-2-yl}-N′-[(2R)-1-hydroxypropan-2-yl]urea] | 0.82
3 | O=C(Nc1nc2c(s1)[C@@H]1COC[C@H](C2)N1c1cc(-c2ccc(F)cc2)on1)N[C@@H]1CCOC1 [Example 155] | 0.51
4 | C[C@H](CO)NC(=O)Nc1nc2c(s1)[C@@H]1COC[C@H](C2)N1c1cc(-c2cccc(C(F)F)c2)on1 [Example 156, N-[(4S,8S)-10-{5-[3-(difluoromethyl)phenyl]-1,2-oxazol-3-yl}-4,7,8,9-tetrahydro-5H-4,8-epiminooxocino[5,4-d][1,3]thiazol-2-yl]-N′-[(2R)-1-hydroxypropan-2-yl]urea] | 1
5 | O=C(Nc1nc2c(s1)[C@@H]1COC[C@H](C2)N1c1cc(C2CCC(F)(F)CC2)on1)N[C@@H]1CCOC1 [Example 157, N-{(4S,8S)-10-[5-(4,4-difluorocyclohexyl)-1,2-oxazol-3-yl]-4,7,8,9-tetrahydro-5H-4,8-epiminooxocino[5,4-d][1,3]thiazol-2-yl}-N′-[(3R)-oxolan-3-yl]urea] | 4.6
6 | O=C(Nc1nc2c(s1)[C@@H]1COC[C@H](C2)N1c1cc(-c2ccc(F)cc2)on1)N[C@H]1C[C@@H](O)C1 [Example 158, N-{(4S,8S)-10-[5-(4-fluorophenyl)-1,2-oxazol-3-yl]-4,7,8,9-tetrahydro-5H-4,8-epiminooxocino[5,4-d][1,3]thiazol-2-yl}-N′-[(1s,3R)-3-hydroxycyclobutyl]urea] | 1.1
7 | O=C(Nc1nc2c(s1)[C@@H]1COC[C@H](C2)N1c1cc(-c2ccc(F)cc2)on1)N[C@H]1CC[C@H](O)CC1 [Example 159, N-{(4S,8S)-10-[5-(4-fluorophenyl)-1,2-oxazol-3-yl]-4,7,8,9-tetrahydro-5H-4,8-epiminooxocino[5,4-d][1,3]thiazol-2-yl}-N′-[(1r,4r)-4-hydroxycyclohexyl]urea] | 1.3
8 | CC(C)(CO)NC(=O)Nc1nc2c(s1)[C@@H]1COC[C@H](C2)N1c1cc(-c2ccc(F)cc2)on1 [Example 160, N-{(4S,8S)-10-[5-(4-fluorophenyl)-1,2-oxazol-3-yl]-4,7,8,9-tetrahydro-5H-4,8-epiminooxocino[5,4-d][1,3]thiazol-2-yl}-N′-(1-hydroxy-2-methylpropan-2-yl)urea] | 3.2
9 | O=C(Nc1nc2c(s1)[C@@H]1COC[C@H](C2)N1c1cc(-c2ccc(F)cc2)on1)NC1CCOCC1 [Example 161, N-{(4S,8S)-10-[5-(4-fluorophenyl)-1,2-oxazol-3-yl]-4,7,8,9-tetrahydro-5H-4,8-epiminooxocino[5,4-d][1,3]thiazol-2-yl}-N′-oxan-4-ylurea] | 0.97
10 | COc1cccc(-c2cc(N3[C@@H]4COC[C@H]3c3sc(NC(=O)N[C@H]5CCOC5)nc3C4)no2)n1 [Example 162, N-{(4S,8S)-10-[5-(6-methoxypyridin-2-yl)-1,2-oxazol-3-yl]-4,7,8,9-tetrahydro-5H-4,8-epiminooxocino[5,4-d][1,3]thiazol-2-yl}-N′-[(3S)-oxolan-3-yl]urea] | 3.3
11 | COc1cccc(-c2cc(N3[C@@H]4COC[C@H]3c3sc(NC(=O)N[C@@H]5CCOC5)nc3C4)no2)n1 [Example 163, N-{(4S,8S)-10-[5-(6-methoxypyridin-2-yl)-1,2-oxazol-3-yl]-4,7,8,9-tetrahydro-5H-4,8-epiminooxocino[5,4-d][1,3]thiazol-2-yl}-N′-[(3R)-oxolan-3-yl]urea] | 1.6
12 | COc1cccc(-c2cc(N3[C@@H]4COC[C@H]3c3sc(NC(=O)N[C@@H]5CCOC5)nc3C4)no2)c1 [Example 164, N-{(4S,8S)-10-[5-(3-methoxyphenyl)-1,2-oxazol-3-yl]-4,7,8,9-tetrahydro-5H-4,8-epiminooxocino[5,4-d][1,3]thiazol-2-yl}-N′-[(3R)-oxolan-3-yl]urea] | 2.6
13 | O=C(Nc1nc2c(s1)[C@@H]1COC[C@H](C2)N1c1cc(-c2ccc(F)cc2)on1)NC1CCS(=O)(=O)CC1 [Example 165, N-(1,1-dioxo-1λ^6-thian-4-yl)-N′-{(4S,8S)-10-[5-(4-fluorophenyl)-1,2-oxazol-3-yl]-4,7,8,9-tetrahydro-5H-4,8-epiminooxocino[5,4-d][1,3]thiazol-2-yl}urea] | 0.41
14 | O=C(Nc1nc2c(s1)[C@@H]1COC[C@H](C2)N1c1ncc(-c2cccc(C(F)F)c2)o1)N[C@H]1C[C@H](O)C1 [Example 166, N-(10-{5-[3-(difluoromethyl)phenyl]-1,3-oxazol-2-yl}-4,7,8,9-tetrahydro-5H-4,8-epiminooxocino[5,4-d][1,3]thiazol-2-yl)-N′-[(1r,3r)-3-hydroxycyclobutyl]urea] | 0.21
15 | O=C(Nc1nc2c(s1)[C@@H]1COC[C@H](C2)N1c1ncc(-c2cccc(OC(F)F)c2)o1)N[C@H]1C[C@H](O)C1 [Example 167, N-[(4S,8S)-10-{5-[3-(difluoromethoxy)phenyl]-1,3-oxazol-2-yl}-4,7,8,9-tetrahydro-5H-4,8-epiminooxocino[5,4-d][1,3]thiazol-2-yl]-N′-[(1r,3S)-3-hydroxycyclobutyl]urea] | 0.43
16 | C[C@@H](CO)NC(=O)Nc1nc2c(s1)[C@@H]1COC[C@H](C2)N1c1ncc(-c2cccc(C(F)F)c2)o1 [Example 168, N-[(4S,8S)-10-{5-[3-(difluoromethyl)phenyl]-1,3-oxazol-2-yl}-4,7,8,9-tetrahydro-5H-4,8-epiminooxocino[5,4-d][1,3]thiazol-2-yl]-N′-[(2S)-1-hydroxypropan-2-yl]urea] | 0.35
17 | C[C@@H](CO)NC(=O)Nc1nc2c(s1)[C@@H]1COC[C@H](C2)N1c1ncc(-c2cccc(OC(F)F)n2)o1 [Example 169, N-[(4S,8S)-10-{5-[6-(difluoromethoxy)pyridin-2-yl]-1,3-oxazol-2-yl}-4,7,8,9-tetrahydro-5H-4,8-epiminooxocino[5,4-d][1,3]thiazol-2-yl]-N′-[(2S)-1-hydroxypropan-2-yl]urea] | 0.66
18 | CC(C)(CO)NC(=O)Nc1nc2c(s1)[C@@H]1COC[C@H](C2)N1c1ncc(-c2cccc(OC(F)F)c2)o1 [Example 170, N-[(4S,8S)-10-{5-[3-(difluoromethoxy)phenyl]-1,3-oxazol-2-yl}-4,7,8,9-tetrahydro-5H-4,8-epiminooxocino[5,4-d][1,3]thiazol-2-yl]-N′-(1-hydroxy-2-methylpropan-2-yl)urea] | 1.2
19 | C[C@@H](O)CNC(=O)Nc1nc2c(s1)[C@@H]1COC[C@H](C2)N1c1ncc(-c2cccc(OC(F)F)c2)o1 [Example 171, N-[(4S,8S)-10-{5-[3-(difluoromethoxy)phenyl]-1,3-oxazol-2-yl}-4,7,8,9-tetrahydro-5H-4,8-epiminooxocino[5,4-d][1,3]thiazol-2-yl]-N′-[(2R)-2-hydroxypropyl]urea] | 0.55
20 | CC(C)(O)CNC(=O)Nc1nc2c(s1)[C@@H]1COC[C@H](C2)N1c1ncc(-c2cccc(OC(F)F)c2)o1 [Example 172, N-[(4S,8S)-10-{5-[3-(difluoromethoxy)phenyl]-1,3-oxazol-2-yl}-4,7,8,9-tetrahydro-5H-4,8-epiminooxocino[5,4-d][1,3]thiazol-2-yl]-N′-(2-hydroxy-2-methylpropyl)urea] | 0.83
21 | C[C@@H](CO)NC(=O)Nc1nc2c(s1)[C@@H]1COC[C@H](C2)N1c1ncc(-c2cccc(OC(F)F)c2)o1 [Example 173, N-[(4S,8S)-10-{5-[3-(difluoromethoxy)phenyl]-1,3-oxazol-2-yl}-4,7,8,9-tetrahydro-5H-4,8-epiminooxocino[5,4-d][1,3]thiazol-2-yl]-N′-[(2S)-1-hydroxypropan-2-yl]urea] | 0.62
22 | C[C@H](O)CNC(=O)Nc1nc2c(s1)[C@@H]1COC[C@H](C2)N1c1ncc(-c2cccc(OC(F)F)n2)o1 [Example 174, N-[(4S,8S)-10-{5-[6-(difluoromethoxy)pyridin-2-yl]-1,3-oxazol-2-yl}-4,7,8,9-tetrahydro-5H-4,8-epiminooxocino[5,4-d][1,3]thiazol-2-yl]-N′-[(2S)-2-hydroxypropyl]urea] | 0.74
23 | O=C(Nc1nc2c(s1)[C@@H]1COC[C@H](C2)N1c1ncc(-c2cccc(OC(F)F)n2)o1)N[C@@H]1COC[C@H]1O [Example 175, N-[(4S,8S)-10-{5-[6-(difluoromethoxy)pyridin-2-yl]-1,3-oxazol-2-yl}-4,7,8,9-tetrahydro-5H-4,8-epiminooxocino[5,4-d][1,3]thiazol-2-yl]-N′-[(3R,4S)-4-hydroxyoxolan-3-yl]urea] | 0.27
